This is an account of results in patent US10562909B2, “Fused quadracyclic compounds, compositions and uses thereof” (Tabomedex Biosciences, LLC, priority 2016, dated 2020).

Bounds are passed on as bounds.

Chain of MAPKAPK2 (P49137 whole entry, species assumed): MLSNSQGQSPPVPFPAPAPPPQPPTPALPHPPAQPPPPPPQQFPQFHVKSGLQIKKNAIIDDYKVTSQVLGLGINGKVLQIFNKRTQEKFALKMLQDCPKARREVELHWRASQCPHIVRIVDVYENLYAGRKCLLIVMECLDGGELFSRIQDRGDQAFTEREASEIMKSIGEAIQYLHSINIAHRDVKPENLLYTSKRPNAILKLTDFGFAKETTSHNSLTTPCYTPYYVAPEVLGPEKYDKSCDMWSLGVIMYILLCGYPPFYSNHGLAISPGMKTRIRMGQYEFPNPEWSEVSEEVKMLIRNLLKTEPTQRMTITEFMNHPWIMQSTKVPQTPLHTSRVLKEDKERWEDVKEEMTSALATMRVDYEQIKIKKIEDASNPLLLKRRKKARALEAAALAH

This test concerns the target MAPKAPK2 (Homo sapiens, UniProt P49137). The experiment in a line: MK2 Enzymatic Assay. As to conditions: 0.5 nM MAPKAPK2, 3 μM ATP, 2 μM Ser/Thr4 peptide, 23° C., values given as concentration bins. Type of test: biochemical. Put shortly: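 MAPKAPK2 (2× stock 1 nM) and peptide substrate (2× 4 μM) were preincubated 20 min, then started with ATP (2× stock 6 μM) for 120 min. After 120 min development, coumarin/fluorescein emission ratio gave percent phosphorylation against 0% and 100% phosphopeptide controls.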
For orientation: IC50 means the concentration at which inhibition is half-maximal. A lower IC50 goes with higher potency. `N#Cc1ccc(-c2cc3n(c2)Cc2cc(N4CC[C@H](CN5CCC(O)CC5)C4)ccc2-n2ccnc2-3)cc1` [Compound 143, (R)-4-(7-(3-((4-hydroxypiperidin-1-yl)methyl)pyrrolidin-1-yl)-9H-benzo[e]imidazo[2,1-c]pyrrolo[1,2-a][1,4]diazepin-12-yl)benzonitrile]: the IC50 is less than 0.05 µM.

For `CN(C)[C@@H]1CN(c2ccc3c(n2)Cn2cc(-c4ccc(C#N)cc4)cc2-c2nccn2-3)C[C@H]1O` [Compound 300, 4-(7-((3R,4R)-3-(dimethylamino)-4-hydroxypyrrolidin-1-yl)-9H-imidazo[2,1-c]pyrido[3,2-e]pyrrolo[1,2-a][1,4]diazepin-12-yl)benzonitrile], the IC50 is less than 0.05 µM.

As to `O[C@H]1CN(c2ccc3c(c2)Cn2cc(-c4ccc(F)cc4)cc2-c2nccn2-3)C[C@@H]1CN1CCCC1` [Compound 470, (3R,4S)-1-(12-(4-fluorophenyl)-9H-benzo[e]imidazo[2,1-c]pyrrolo[1,2-a][1,4]diazepin-7-yl)-4-(pyrrolidin-1-ylmethyl)pyrrolidin-3-ol], the IC50 is less than 0.05 µM.

Take `N#Cc1ccc(-c2cc3n(c2)Cc2cc(N4CCC5(CNC5)C4)ncc2-n2cnnc2-3)cc1` [Compound 318, 4-(7-(2,6-diazaspiro[3.4]octan-6-yl)-9H-pyrido[3,4-e]pyrrolo[1,2-a][1,2,4]triazolo[3,4-c][1,4]diazepin-12-yl)benzonitrile]: the IC50 was 0.1 to 0.2 µM.

As for `CNCC1CN(c2ccc3c(c2)Cn2cc(-c4ccc(F)cc4)cc2-c2nccn2-3)C1` [Compound 341, 1-(1-(12-(4-fluorophenyl)-9H-benzo[e]imidazo[2,1-c]pyrrolo[1,2-a][1,4]diazepin-7-yl)azetidin-3-yl)-N-methylmethanamine], the 50% inhibitory concentration (IC50) was less than 0.05 µM.

Consider `O=C1N[C@@H]2CN(c3ccc4c(c3)Cn3cc(-c5ccc(F)cc5)cc3-c3nccn3-4)C[C@@H]2O1` [Compound 481, (3aR,6aS)-5-(12-(4-fluorophenyl)-9H-benzo[e]imidazo[2,1-c]pyrrolo[1,2-a][1,4]diazepin-7-yl)hexahydro-2H-pyrrolo[3,4-d]oxazol-2-one], for which the IC50 is 0.2 to 1 µM.

Regarding `N#Cc1ccc(-c2cc3n(c2)Cc2cc(N4CC[C@@H](CN5CCC(O)CC5)C4)ccc2-n2ccnc2-3)cc1` [Compound 142, (S)-4-(7-(3-((4-hydroxypiperidin-1-yl)methyl)pyrrolidin-1-yl)-9H-benzo[e]imidazo[2,1-c]pyrrolo[1,2-a][1,4]diazepin-12-yl)benzonitrile], the 50% inhibitory concentration (IC50) is less than 0.05 µM.

In the case of `C[C@H](CO)NC[C@H]1CCN(c2ccc3c(c2)Cn2cc(-c4ccc(F)cc4)cc2-c2nccn2-3)C1` [Compound 355, (R)-2-((((R)-1-(12-(4-fluorophenyl)-9H-benzo[e]imidazo[2,1-c]pyrrolo[1,2-a][1,4]diazepin-7-yl)pyrrolidin-3-yl)methyl)amino)propan-1-ol], the IC50 was less than 0.05 µM.

`CN1CC2(CCN(c3ccc4c(c3)Cn3cc(-c5ccc(F)cc5)cc3-c3nccn3-4)C2)C1` [Compound 344, 12-(4-fluorophenyl)-7-(2-methyl-2,6-diazaspiro[3.4]octan-6-yl)-9H-benzo[e]imidazo[2,1-c] pyrrolo[1,2-a][1,4]diazepine] displayed a concentration for half-maximal inhibition (IC50) of less than 0.05 µM.

In turn, `CN[C@@H]1CN(c2ccc3c(c2)Cn2cc(-c4ccc(F)cc4)cc2-c2nccn2-3)C[C@H]1CO` (relative stereo) [Compound 491, ((Trans)-1-(12-(4-fluorophenyl)-9H-benzo[e]imidazo[2,1-c]pyrrolo[1,2-a][1,4]diazepin-7-yl)-4-(methylamino)pyrrolidin-3-yl)methanol] registered an IC50 of less than 0.05 µM.

On to `CN(C)C[C@@H]1CN(c2ccc3c(c2)Cn2cc(-c4ccc(C#N)cc4)cc2-c2nccn2-3)C[C@H]1O` [Compound 138, 4-(7-((3R,4S)-3-((dimethylamino)methyl)-4-hydroxypyrrolidin-1-yl)-9H-benzo[e]imidazo[2,1-c]pyrrolo[1,2-a][1,4]diazepin-12-yl)benzonitrile], for which the IC50 is less than 0.05 µM.

Compound `C[C@@H](CO)N(C)C1CCN(c2ccc3c(c2)Cn2cc(-c4ccc(C#N)cc4)cc2-c2nncn2-3)CC1` [Compound 104, (S)-4-(7-(4-((1-hydroxypropan-2-yl)(methyl)amino)piperidin-1-yl)-9H-benzo[e]pyrrolo[1,2-a][1,2,4]triazolo[3,4-c][1,4]diazepin-12-yl)benzonitrile] gave an IC50 of 0.1 to 0.2 µM.

Compound `C[C@H](CO)NC[C@@H]1CCN(c2ccc3c(c2)Cn2cc(-c4ccc(C#N)cc4)cc2-c2nccn2-3)C1` [Compound 135, 4-(7-((S)-3-((((R)-1-hydroxypropan-2-yl)amino)methyl)pyrrolidin-1-yl)-9H-benzo[e]imidazo[2,1-c]pyrrolo[1,2-a][1,4]diazepin-12-yl)benzonitrile] showed a 50% inhibitory concentration (IC50) of less than 0.05 µM.

Compound `CN(C)C[C@H]1CN(c2ccc3c(c2)Cn2cc(-c4ccc(F)cc4)cc2-c2ncnn2-3)C[C@@H]1O` [Compound 421, (3R,4S)-4-((dimethylamino)methyl)-1-(12-(4-fluorophenyl)-9H-benzo[e]pyrrolo[1,2-a][1,2,4]triazolo[5,1-c][1,4]diazepin-7-yl)pyrrolidin-3-ol] gave an IC50 of less than 0.05 µM.

Turning to `Cc1nnc2n1-c1ccc(N3CC[C@@H](CN(C)C)C3)cc1Cn1cc(-c3ccc(C#N)cc3)cc1-2` [Compound 228, 4-(7-((S)-3-((dimethylamino)methyl)pyrrolidin-1-yl)-3-methyl-9H-benzo[e]pyrrolo[1,2-a] [1,2,4]triazolo[3,4-c][1,4]diazepin-12-yl)benzonitrile], the IC50 lay in the range of 0.05 to 0.1 µM.

Compound `CNC[C@H]1CN(c2ccc3c(c2)Cn2cc(-c4ccc(C#N)cc4)cc2-c2nncn2-3)C[C@H]1O` (racemic) [Compound 73, 4-(7-(cis-3-hydroxy-4-((methylamino)methyl)pyrrolidin-1-yl)-9H-benzo[e]pyrrolo[1,2-a] [1,2,4]triazolo[3,4-c][1,4]diazepin-12-yl)benzonitrile] yielded a half-maximal inhibitory concentration (IC50) of less than 0.05 µM.

Regarding `CN(C)C[C@H]1CN(c2ccc3c(n2)Cn2cc(-c4ccc(F)cc4)cc2-c2ncnn2-3)C[C@H]1O` [Compound 429, (3S,4S)-4-((dimethylamino)methyl)-1-(12-(4-fluorophenyl)-9H-imidazo[2,1-c]pyrido[3,2-e]pyrrolo[1,2-a][1,4]diazepin-7-yl)pyrrolidin-3-ol], the IC50 was less than 0.05 µM.

Compound `CNCC[C@H]1CN(c2ccc3c(c2)Cn2cc(-c4ccc(F)cc4)cc2-c2nccn2-3)C[C@@H]1O` (relative stereo) [Compound 493, Trans-1-(12-(4-fluorophenyl)-9H-benzo[e]imidazo[2,1-c]pyrrolo[1,2-a][1,4]diazepin-7-yl)-4-(2-(methylamino)ethyl)pyrrolidin-3-ol] had an IC50 of less than 0.05 µM.

In the case of `CNCC1CN(c2cc3c(cn2)-n2cnnc2-c2cc(-c4ccc(C#N)cc4)cn2C3)C1` [Compound 315, 4-(7-(3-((methylamino)methyl)azetidin-1-yl)-9H-pyrido[3,4-e]pyrrolo[1,2-a][1,2,4]triazolo[3,4-c][1,4]diazepin-12-yl)benzonitrile], the IC50 is 0.1 to 0.2 µM.

Compound `C[C@H](CO)NC[C@@H]1CCN(c2ccc3c(c2)Cn2cc(-c4ccc(F)cc4)cc2-c2nccn2-3)C1` [Compound 354, (R)-2-((((S)-1-(12-(4-fluorophenyl)-9H-benzo[e]imidazo[2,1-c]pyrrolo[1,2-a][1,4]diazepin-7-yl)pyrrolidin-3-yl)methyl)amino)propan-1-ol] returned an IC50 of less than 0.05 µM.

As to `CN(C)C[C@H]1CCN(c2ccc3c(c2)Cn2cc(-c4ccc(F)cc4)cc2-c2ncnn2-3)C1` [Compound 414, (R)-1-(1-(12-(4-fluorophenyl)-9H-benzo[e]pyrrolo[1,2-a][1,2,4]triazolo[5,1-c][1,4]diazepin-7-yl)pyrrolidin-3-yl)-N,N-dimethylmethanamine], the IC50 fell in the range of 0.05 to 0.1 µM.

For the compound `Fc1ccc(-c2cc3n(c2)Cc2cc(N4CCC5(C4)CN(C4CCCC4)C5)ccc2-n2ccnc2-3)cc1` [Compound 375, 7-(2-cyclopentyl-2,6-diazaspiro[3.4]octan-6-yl)-12-(4-fluorophenyl)-9H-benzo[e]imidazo[2,1-c]pyrrolo[1,2-a][1,4]diazepine], the half-inhibitory concentration (IC50) is less than 0.05 µM.

In turn, `NCCC1CCN(c2ccc3c(c2)Cn2cc(-c4ccc(F)cc4)cc2-c2nccn2-3)C1` (stereo not shown) [Compound 486, 2-(1-(12-(4-fluorophenyl)-9H-benzo[e]imidazo[2,1-c]pyrrolo[1,2-a][1,4]diazepin-7-yl)pyrrolidin-3-yl)ethanamine] returned an IC50 of less than 0.05 µM.

As to `CNC[C@@H]1CCN(c2ccc3c(c2)Cn2cc(-c4ccc(F)cc4)cc2-c2nccn2-3)C1` [Compound 347, (S)-1-(1-(12-(4-fluorophenyl)-9H-benzo[e]imidazo[2,1-c]pyrrolo[1,2-a][1,4]diazepin-7-yl)pyrrolidin-3-yl)-N-methylmethanamine], the IC50 is less than 0.05 µM.

For the compound `CN(C)C[C@H]1CN(c2ccc3c(c2)Cn2cc(-c4ccc(F)cc4)cc2-c2nccn2-3)C[C@H]1O` [Compound 349, (3S,4S)-4-((dimethylamino)methyl)-1-(12-(4-fluorophenyl)-9H-benzo[e]imidazo[2,1-c]pyrrolo[1,2-a][1,4]diazepin-7-yl)pyrrolidin-3-ol], the IC50 was less than 0.05 µM.

The compound `CN(C)[C@H]1CCN(c2ccc3c(c2)Cn2cc(-c4ccc(F)cc4)cc2-c2ncnn2-3)C1` [Compound 427, (S)-1-(12-(4-fluorophenyl)-9H-benzo[e]pyrrolo[1,2-a][1,2,4]triazolo[5,1-c][1,4]diazepin-7-yl)-N,N-dimethylpyrrolidin-3-amine] yielded a half-maximal inhibitory concentration (IC50) of 0.05 to 0.1 µM.

`CN(C)[C@H]1CCN(c2ccc3c(c2)Cn2cc(-c4ccc(F)cc4)cc2-c2nccn2-3)C1` [Compound 380, (S)-1-(12-(4-fluorophenyl)-9H-benzo[e]imidazo[2,1-c]pyrrolo[1,2-a][1,4]diazepin-7-yl)-N,N-dimethylpyrrolidin-3-amine]: the IC50 is less than 0.05 µM.

`CN1CC2(CCN(c3ccc4c(c3)Cn3cc(-c5ccc(C#N)cc5)cc3-c3nccn3-4)C2)C1` [Compound 125, 4-(7-(2-methyl-2,6-diazaspiro[3.4]octan-6-yl)-9H-benzo[e]imidazo[2,1-c]pyrrolo[1,2-a][1,4]diazepin-12-yl)benzonitrile] came in with an IC50 of less than 0.05 µM.
